ChEMBL document CHEMBL1142052, “Isosteric ramatroban analogs: selective and potent CRTH-2 antagonists” (Bioorg Med Chem Lett, 2005)

Assays:
[1] = biological target: T1, Prostaglandin D2 receptor 2 (Homo sapiens, UniProt Q9Y5Y4); experiment: Inhibitory activity for binding of PGD-2 to CRTH-2 in hCRTH-2 binding assay using HEK293 cell membranes
T1 sequence (Q9Y5Y4 whole entry): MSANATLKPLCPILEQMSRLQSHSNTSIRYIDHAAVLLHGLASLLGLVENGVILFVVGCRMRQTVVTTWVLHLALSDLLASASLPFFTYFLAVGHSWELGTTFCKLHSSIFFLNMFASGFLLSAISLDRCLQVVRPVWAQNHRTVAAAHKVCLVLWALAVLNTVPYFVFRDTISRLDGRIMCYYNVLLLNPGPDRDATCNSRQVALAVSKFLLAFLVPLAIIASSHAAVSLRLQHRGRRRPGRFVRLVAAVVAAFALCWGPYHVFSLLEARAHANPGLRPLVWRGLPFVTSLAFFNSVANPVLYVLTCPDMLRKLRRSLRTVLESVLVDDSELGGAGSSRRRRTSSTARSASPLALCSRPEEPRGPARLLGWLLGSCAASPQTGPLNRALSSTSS

[2] = biological target: T2, Thromboxane A2 receptor (Homo sapiens) (UniProt P21731); experiment: Percentage inhibition for binding of PGD-2 in hTP binding assay using HEK293 cell membranes; details: concentration not given here
T2 sequence (whole entry): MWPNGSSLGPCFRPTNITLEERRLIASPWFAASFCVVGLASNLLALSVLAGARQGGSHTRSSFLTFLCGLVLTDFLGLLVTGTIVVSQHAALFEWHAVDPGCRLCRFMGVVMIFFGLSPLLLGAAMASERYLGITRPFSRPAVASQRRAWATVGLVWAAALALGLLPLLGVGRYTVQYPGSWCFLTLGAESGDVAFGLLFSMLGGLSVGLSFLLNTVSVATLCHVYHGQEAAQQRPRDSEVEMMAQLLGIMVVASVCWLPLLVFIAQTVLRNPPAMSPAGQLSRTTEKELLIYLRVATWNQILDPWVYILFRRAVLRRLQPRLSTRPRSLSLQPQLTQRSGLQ

[3] = biological target: T1, Prostaglandin D2 receptor 2; experiment: Inhibitory concentration for PGD2-mediated receptor activation in a fluorescence assay that measures changes in intracellular calcium; format: functional, cell-based
Thromboxane A2 receptor [4] = biological target: T3, Thromboxane A2 receptor (Homo sapiens, UniProt P21731); experiment: Inhibitory activity for binding of PGD-2 in hTP binding assay using HEK293 cell membranes
T3 sequence (P21731 whole entry): T2 sequence (whole entry)

Thromboxane A2 receptor [5] = biological target: T3, Thromboxane A2 receptor; experiment: Inhibitory activity for binding of PGD-2 to hTP in hTP binding assay using HEK293 cell membranes
[6] = biological target: T1, Prostaglandin D2 receptor 2; experiment: Inhibitory activity against CRTH-2 in hCRTH-2 binding assay using HEK293 cell membranes
[7] = biological target: T1, Prostaglandin D2 receptor 2; experiment: = for PGD2-mediated receptor activation in a fluorescence assay that measures changes in intracellular calcium

Ki [1] [µM] | SMILES | further results
3 | O=C(O)CCn1c2c(c3cc(NS(=O)(=O)c4ccc(Cl)cc4)ccc31)CCCC2 | 
> 50 | Cc1ccccc1S(=O)(=O)Nc1ccc2c(c1)c1c(n2CCC(=O)O)CCCC1 | 
33 | O=C(O)c1ccccc1-n1c2c(c3cc(NS(=O)(=O)c4ccc(F)cc4)ccc31)CCCC2 | 
4.6 | O=C(O)CCCCn1c2c(c3cc(NS(=O)(=O)c4ccc(F)cc4)ccc31)CCCC2 | 
3.6 | O=C(O)CCn1c2c(c3cc(NS(=O)(=O)c4ccc(F)cc4F)ccc31)CCCC2 | 
4.2 | O=C(O)CCn1c2c(c3cc(NS(=O)(=O)c4ccc(F)c(F)c4)ccc31)CCCC2 | 
19 | O=C(O)/C=C\n1c2c(c3cc(NS(=O)(=O)c4ccc(F)cc4)ccc31)CCCC2 | 
 | CC1CCc2c(c3cc(NS(=O)(=O)c4ccc(F)cc4)ccc3n2CC(=O)O)C1 (configuration not stated) | inhibition [2]: 30%; IC50 [3]: 0.0097 µM; Ki (Thromboxane A2 receptor [4]): > 20 µM
2.4 | O=S(=O)(O)CCn1c2c(c3cc(NS(=O)(=O)c4ccc(F)cc4)ccc31)CCCC2 | 
3.2 | Cc1ccc(S(=O)(=O)Nc2ccc3c(c2)c2c(n3CCC(=O)O)CCCC2)cc1 | 
> 50 | O=C(O)CCn1c2c(c3cc(NC(=O)Nc4ccccc4)ccc31)CCCC2 | 
7.4 | O=C(O)CCn1c2c(c3cc(NS(=O)(=O)c4ccc(O)cc4)ccc31)CCCC2 | 
7.6 | O=C(O)CCn1c2c(c3cc(NS(=O)(=O)c4cccs4)ccc31)CCCC2 | 
7.5 | O=C(O)CCn1c2c(c3cc(NS(=O)(=O)c4ccc(Oc5ccccc5)cc4)ccc31)CCCC2 | 
4.2 | Cc1cccc(S(=O)(=O)Nc2ccc3c(c2)c2c(n3CCC(=O)O)CCCC2)c1 | 
> 50 | O=C(O)CCn1c2c(c3cc(NC(=O)c4ccccc4)ccc31)CCCC2 | 
0.03 | O=C(O)Cn1c2c(c3cc(NS(=O)(=O)c4ccc(F)cc4)ccc31)CCCC2 | Ki (Thromboxane A2 receptor [5]): > 20 µM
27 | O=C(O)c1cccc(-n2c3c(c4cc(NS(=O)(=O)c5ccc(F)cc5)ccc42)CCCC3)c1 | 
4.4 | CC(C(=O)O)n1c2c(c3cc(NS(=O)(=O)c4ccc(F)cc4)ccc31)CCCC2 (configuration not stated) | 
 | O=C(O)Cn1c2c(c3cc(NS(=O)(=O)c4ccc(F)cc4)ccc31)CC(c1ccccc1)CC2 (configuration not stated) | inhibition [2]: 66%; IC50 [3]: 0.022 µM; Ki (Thromboxane A2 receptor [4]): > 20 µM
 | CC(C)(C)C1CCc2c(c3cc(NS(=O)(=O)c4ccc(F)cc4)ccc3n2CC(=O)O)C1 (configuration not stated) | IC50 [3]: 0.12 µM

Ki [1] [µM] | SMILES | further results
8.3 | O=C(O)CCCn1c2c(c3cc(NS(=O)(=O)c4ccc(F)cc4)ccc31)CCCC2 | 
7.4 | O=C(O)CCn1c2c(c3cc(NS(=O)(=O)c4ccc5ccccc5c4)ccc31)CCCC2 | 
17 | O=C(O)CCn1c2c(c3cc(NCc4ccccc4)ccc31)CCCC2 | 
 | O=C(O)Cn1c2c(c3cc(NS(=O)(=O)c4ccc(F)cc4)ccc31)CCC2 | IC50 [3]: 0.13 µM
18 | CCC(C(=O)O)n1c2c(c3cc(NS(=O)(=O)c4ccc(F)cc4)ccc31)CCCC2 (configuration not stated) | 
1.7 | O=C(O)CCn1c2c(c3cc(NS(=O)(=O)c4ccc(F)c(Cl)c4)ccc31)CCCC2 | 
> 50 | CCCS(=O)(=O)Nc1ccc2c(c1)c1c(n2CCC(=O)O)CCCC1 | 
2.1 | COc1ccc(S(=O)(=O)Nc2ccc3c(c2)c2c(n3CCC(=O)O)CCCC2)cc1 | 
1.3 | O=C(O)CCn1c2c(c3cc(NS(=O)(=O)c4cccc(F)c4)ccc31)CCCC2 | 
0.25 | O=C(O)CCn1c2c(c3cc(NS(=O)(=O)c4ccc(F)cc4)ccc31)CCCC2 | Ki (Thromboxane A2 receptor [4]): 1.5 µM; Ki [6]: 0.25 µM
> 50 | CC(CC(=O)O)n1c2c(c3cc(NS(=O)(=O)c4ccc(F)cc4)ccc31)CCCC2 (configuration not stated) | 
> 50 | CC(Cn1c2c(c3cc(NS(=O)(=O)c4ccc(F)cc4)ccc31)CCCC2)C(=O)O (configuration not stated) | 
0.29 | O=C(O)CCn1c2c(c3ccccc31)C[C@H](NS(=O)(=O)c1ccc(F)cc1)CC2 [RAMATROBAN] | inhibition [2]: 98%; Ki (Thromboxane A2 receptor [4]): 0.018 µM; IC50 [7]: 0.34 µM
 | O=C(O)CN1c2ccc(NS(=O)(=O)c3ccc(F)cc3)cc2C2CCCCCC21 (configuration not stated) | IC50 [3]: 0.022 µM; Ki (Thromboxane A2 receptor [4]): > 20 µM
1.2 | O=C(O)CCn1c2c(c3cc(NS(=O)(=O)c4ccccc4)ccc31)CCCC2 | 
0.97 | O=C(O)CCn1c2c(c3cc(NS(=O)(=O)c4ccccc4F)ccc31)CCCC2 | 
3.3 | O=C(O)CCn1c2c(c3cc(NS(=O)(=O)c4ccc(-c5ccccc5)cc4)ccc31)CCCC2 | 
> 50 | O=P(O)(O)CCn1c2c(c3cc(NS(=O)(=O)c4ccc(F)cc4)ccc31)CCCC2 | 
> 50 | Nc1ccc2c(c1)c1c(n2CCC(=O)O)CCCC1 | 
6.4 | O=C(O)c1ccc(-n2c3c(c4cc(NS(=O)(=O)c5ccc(F)cc5)ccc42)CCCC3)cc1 | 
